The conditions of data set [1]: phase II clinical trial, allergic rhinitis; cited from earlier work.
Data set [2] has as its system PGD2. The settings on record: dosed intranasally, phase I/II study, allergic rhinitis; cited from earlier work.
Data set [3] addresses T1, recombinant human GST-SYK (Homo sapiens, UniProt P43405).
T1 construct: purchased Carna Biosciences 08-176
Briefly: Homogeneous Time-Resolved Fluorescence (HTRF) assay for the recombinant human Syk enzyme. The settings on record: recombinant human GST-SYK 5 pM, ATP 25 μM, read-out: rhSYK IC50. Format: biochemical. In outline:
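GST-tagged human Syk (5 pM) preincubated 10 min with inhibitor (0.1% DMSO) in pH 7.5 Tris buffer, then 45 min at room temperature with 250 nM biotinylated peptide, 5 mM Mg and 25 μM ATP. EDTA-quenched; Eu-anti-phosphotyrosine/SA-APC HTRF read after 30 min, giving IC50.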
(In general: TR-FRET usually uses a lanthanide donor and a delayed reading to cut background.)

As a reminder, the IC50 is the point on the concentration scale where inhibition reaches its midpoint.

On to `Oc1cccc(Nc2ncc(F)c(Nc3cccc(O)c3)n2)c1` [Example R112], for which the efficacy versus placebo result in data set [1] is recorded as “lack of efficacy versus placebo”. In data set [2], the “change in PGD2” value is “statistically significant decrease in PGD2” and the clinical safety entry is on record as “safe across a range of indicators”.

For the compound `COC(=O)C1CCC(O)(c2ncc(-c3nc(C)cc(Nc4cc(C(F)(F)F)ccn4)n3)s2)CC1(C)C` (centres unmarked) [Example 1.10, methyl 4-hydroxy-2,2-dimethyl-4-[5-(4-methyl-6-{[4-(trifluoromethyl)pyridin-2-yl]amino}pyrimidin-2-yl)-1,3-thiazol-2-yl]cyclohexane-carboxylate], the IC50 in data set [3] is 8.85 nM. On the same count and under the same terms, under `Cc1cc(Nc2cc(C(F)(F)F)ncn2)nc(-c2cnc(C3(O)CCC(C(N)=O)C(C)C3)s2)c1` (single isomer, unassigned) [Example 1.18, rel-(1S,2R,4R or S)-4-hydroxy-2-methyl-4-[5-(4-methyl-6-{[6-(trifluoromethyl)pyrimidin-4-yl]amino}pyridin-2-yl)-1,3-thiazol-2-yl] cyclohexane-carboxamide] stands 1.52 nM.

The record behind these values is US9745295B2, “Thiazole-substituted aminoheteroaryls as spleen tyrosine kinase inhibitors” (Merck Sharp & Dohme Corp., priority 2013, dated 2017).
